Consider 21 molecules from patent US10202390B2, “Heteroaryl substituted aminopyridine compounds” (BRISTOL-MYERS SQUIBB COMPANY, priority 2015, dated 2019).

One test deals with IRAK4 (Homo sapiens (Human), UniProt Q9NWZ3). In words: IRAK4 Inhibition Assay. In kind it is biochemical. The following applies: ATP 500 μM; IRAK4 0.6 nM; 60 min room temperature. As for the experimental part: The assays were performed in U-bottom 384-well plates. The final assay volume was 30 μL prepared from 15 μL additions of enzyme and substrates (fluoresceinated peptide and ATP) and test compounds in assay buffer (20 mM HEPES pH 7.2, 10 mM MgCl2, 0.015% Brij 35 and 4 mM DTT). The reaction was initiated by the combination of IRAK4 with substrates and test compounds. The reaction mixture was incubated at room temperature for 60 min. and terminated by adding 45 μL of 35 mM EDTA to each sample. The reaction mixture was analyzed on the Caliper LABCHIP® 3000 (Caliper, Hopkinton, Mass.) by electrophoretic separation of the fluorescent substrate and phosphorylated product. Inhibition data were calculated by comparison to no enzyme control reactions for 100% inhibition and vehicle-only reactions for 0% inhibition. The final concentrations of reagents in the assays are ATP, 500 μM; FL-IPTSPITTTYFFFKKK peptide 1.5 μM; IRAK4, 0.6 nM; and DMSO, 1.6%.
Sequence of IRAK4 (Q9NWZ3 whole entry): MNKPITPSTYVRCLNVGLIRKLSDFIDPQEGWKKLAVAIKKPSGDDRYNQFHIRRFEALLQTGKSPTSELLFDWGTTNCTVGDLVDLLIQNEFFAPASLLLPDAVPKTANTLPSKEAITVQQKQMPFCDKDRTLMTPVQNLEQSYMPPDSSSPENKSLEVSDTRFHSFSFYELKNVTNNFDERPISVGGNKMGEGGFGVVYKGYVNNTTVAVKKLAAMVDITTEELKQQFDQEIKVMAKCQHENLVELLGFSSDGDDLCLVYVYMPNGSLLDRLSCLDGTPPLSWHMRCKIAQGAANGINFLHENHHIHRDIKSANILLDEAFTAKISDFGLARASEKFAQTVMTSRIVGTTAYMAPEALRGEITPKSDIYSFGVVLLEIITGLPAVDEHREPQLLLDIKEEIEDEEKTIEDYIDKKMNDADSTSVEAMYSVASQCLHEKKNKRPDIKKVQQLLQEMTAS

Another test has as its system Human whole blood. In words: IRAK4 Whole Blood Assay (TLR2 agonist lipoteichoic acid induced IL-6). It is filed as cell-based. The following applies: 10 μg/mL lipoteichoic acid (TLR2 agonist), 5 hours, IL-6 levels. As for the experimental part: Human whole blood containing the anti-coagulant ACD-A was plated in 384-well plate (25 μL/well) and incubated with compounds for 60 minutes at 37° C. in a 5% CO2 incubator. The blood was stimulated with a TLR2 agonist, 10 μg/mL final concentration of lipoteichoic acid (Invivogen, San Diego, Calif.) in 25 μL RPMI (Gibco) for 5 hours in a 5% CO2 incubator. At the end of the incubation, plates were centrifuged at 2300 rpm for 5 minutes. Supernatants were harvested and analyzed for IL-6 levels by Flow Cytometry beads assay (BD Biosciences, San Jose, Calif.).

As to `CCCn1cc(-c2cnc(-c3cnc4cc(C#N)cnn34)cc2NC(C)C)cn1` [Example 6, 3-(4-(isopropylamino)-5-(1-propyl-1H-pyrazol-4-yl)pyridin-2-yl)imidazo[1,2-b]pyridazine-7-carbonitrile], the half-maximal inhibitory concentration (IC50) at IRAK4 was found to be 18 nM. The concentration giving a half-maximal response (EC50) with Human whole blood was 4410 nM.

For `CC(C)Nc1cc(-c2cnc3cc(C#N)cnn23)ncc1-c1cn(C2CCOCC2)nn1` [Example 16, 3-(4-(isopropylamino)-5-(1-(tetrahydro-2H-pyran-4-yl)-1H-1,2,3-triazol-4-yl)pyridin-2-yl)imidazo[1,2-b]pyridazine-7-carbonitrile], the IC50 on IRAK4 is 2 nM.

Take `CC(C)Nc1cc(-c2cnc3cc(Cl)cnn23)ncc1-c1cnn(CC(F)(F)F)c1` [Example 7, 2-(7-chloroimidazo[1,2-b]pyridazin-3-yl)-N-isopropyl-5-(1-(2,2,2-trifluoroethyl)-1H-pyrazol-4-yl)pyridin-4-amine]: the IC50 at IRAK4 is 53 nM.

Regarding `CC(C)Nc1cc(-c2cnc3cc(Cl)cnn23)ncc1-c1cnn(CC(C)(C)O)c1` [Example 4, 1-(4-(6-(7-chloroimidazo[1,2-b]pyridazin-3-yl)-4-(isopropylamino)pyridin-3-yl)-1H-pyrazol-1-yl)-2-methylpropan-2-ol], the IC50 on IRAK4 came to 396 nM.

As for `CC(=O)N1CC(n2cc(-c3cnc(-c4cnc5cc(C#N)cnn45)cc3NC(C)C)nn2)C1` [Example 17, 3-(5-(1-(1-acetylazetidin-3-yl)-1H-1,2,3-triazol-4-yl)-4-(isopropylamino)pyridin-2-yl)imidazo[1,2-b]pyridazine-7-carbonitrile], the IC50 at IRAK4 amounted to 2 nM.

In the case of `CC(C)Nc1cc(-c2cnc3cc(C#N)cnn23)ncc1-c1cc(C2CCOCC2)[nH]n1` [Example 28, 3-(4-(isopropylamino)-5-(5-(tetrahydro-2H-pyran-4-yl)-1H-pyrazol-3-yl)pyridin-2-yl)imidazo[1,2-b]pyridazine-7-carbonitrile], on IRAK4, the IC50 stood at 5 nM. A half-maximal effect with Human whole blood (EC50) was put at 590 nM.

For the molecule `CC(C)Nc1cc(-c2cnc3cc(C#N)cnn23)ncc1-c1cnn(CC(C)(C)O)c1` [Example 5, 3-(5-(1-(2-hydroxy-2-methylpropyl)-1H-pyrazol-4-yl)-4-(isopropylamino)pyridin-2-yl)imidazo[1,2-b]pyridazine-7-carbonitrile], the 50% inhibitory concentration (IC50) at IRAK4 amounted to 174 nM.

With `CCCn1cc(-c2cnc(-c3cnc4cc(Cl)cnn34)cc2Nc2cnn(CC(F)F)c2)cn1` [Example 9, 2-(7-chloroimidazo[1,2-b]pyridazin-3-yl)-N-(1-(2,2-difluoroethyl)-1H-pyrazol-4-yl)-5-(1-propyl-1H-pyrazol-4-yl)pyridin-4-amine], the IC50 on IRAK4 came to 29 nM.

For `CC(C)Nc1cc(-c2cnn3cc(Cl)cnc23)ncc1-n1cc(CCC(C)(C)O)nn1` [Example 13, 4-(1-(6-(6-chloropyrazolo[1,5-a]pyrimidin-3-yl)-4-(isopropylamino)pyridin-3-yl)-H-1,2,3-triazol-4-yl)-2-methylbutan-2-ol], the half-maximal inhibitory concentration (IC50) on IRAK4 amounted to 3 nM. Also, in the test on Human whole blood, the EC50 came to 950 nM.

For `CCCn1cc(-c2cnc(-c3cnc4cc(Cl)cnn34)cc2NC2CC2)nn1` [Example 19, 2-(7-chloroimidazo[1,2-b]pyridazin-3-yl)-N-cyclopropyl-5-(1-propyl-1H-1,2,3-triazol-4-yl)pyridin-4-amine], the IC50 on IRAK4 was determined as 3 nM. In the test with Human whole blood, this molecule yielded an EC50 of 2320 nM.

For `CC(C)(O)CCc1cn(-c2cnc(-c3cnn4cc(Cl)cnc34)cc2NC2COC2)nn1` [Example 14, 4-(1-(6-(6-chloropyrazolo[1,5-a]pyrimidin-3-yl)-4-(oxetan-3-ylamino)pyridin-3-yl)-1H-1,2,3-triazol-4-yl)-2-methylbutan-2-ol], the IC50 at IRAK4 came out at 9 nM. In the test with Human whole blood, this molecule registered an EC50 of 820 nM.

Regarding `CCCn1cc(-c2cnc(-c3cnc4cc(C#N)cnn34)cc2Nc2cnn(CC(F)F)c2)cn1` [Example 10, 3-(4-((1-(2,2-difluoroethyl)-1H-pyrazol-4-yl)amino)-5-(1-propyl-1H-pyrazol-4-yl)pyridin-2-yl)imidazo[1,2-b]pyridazine-7-carbonitrile], the IC50 at IRAK4 amounted to 20 nM.

As to `CC(C)(O)CCc1cn(-c2cnc(-c3cnn4cc(C#N)cnc34)cc2NC2CC(F)(F)C2)nn1` [Example 24, 3-(4-((3,3-difluorocyclobutyl)amino)-5-(4-(3-hydroxy-3-methylbutyl)-1H-1,2,3-triazol-1-yl)pyridin-2-yl)pyrazolo[1,5-a]pyrimidine-6-carbonitrile], the IC50 at IRAK4 came to 14 nM. This molecule displayed an EC50 with Human whole blood of 780 nM.

For `COC(=O)N1CCC(n2cc(-c3cnc(-c4cnc5cc(Cl)cnn45)cc3NC3CC3)nn2)[C@](C)(O)C1` (stereo partly drawn) [Example 21, (3R)-methyl 4-(4-(6-(7-chloroimidazo[1,2-b]pyridazin-3-yl)-4-(cyclopropylamino)pyridin-3-yl)-1H-1,2,3-triazol-1-yl)-3-hydroxy-3-methylpiperidine-1-carboxylate], on IRAK4, the half-inhibitory concentration (IC50) was found to be 14 nM. The same molecule came in with an EC50 in the test with Human whole blood of 2870 nM.

Molecule `CC(C)(O)CCc1cn(-c2cnc(-c3cnn4cc(C#N)cnc34)cc2NC2COC2)nn1` [Example 26, 3-(5-(4-(3-hydroxy-3-methylbutyl)-1H-1,2,3-triazol-1-yl)-4-(oxetan-3-ylamino)pyridin-2-yl)pyrazolo[1,5-a]pyrimidine-6-carbonitrile] had a concentration for a half-maximal effect (EC50) in the test with Human whole blood of 160 nM.

In the case of `CC(C)Nc1cc(-c2cnc3cc(C#N)cnn23)ncc1-c1cnn(CC(F)(F)F)c1` [Example 8, 3-(4-(isopropylamino)-5-(1-(2,2,2-trifluoroethyl)-1H-pyrazol-4-yl)pyridin-2-yl)imidazo[1,2-b]pyridazine-7-carbonitrile], at IRAK4, the half-inhibitory concentration (IC50) came to 43 nM.

In the case of `CC(C)(O)CCc1cn(-c2cnc(-c3cnn4cc(Cl)cnc34)cc2NC2CCOCC2)nn1` [Example 23, 4-(1-(6-(6-chloropyrazolo[1,5-a]pyrimidin-3-yl)-4-((tetrahydro-2H-pyran-4-yl)amino)pyridin-3-yl)-1H-1,2,3-triazol-4-yl)-2-methylbutan-2-ol], on IRAK4, the IC50 is 9 nM. For the same molecule, in the test with Human whole blood, a half-maximal response (EC50) required 990 nM.

For `CC(C)(O)CCc1cc(-c2cnc(-c3cnn4cc(C#N)cnc34)cc2NC2CCOCC2)n[nH]1` [Example 29, 3-(5-(5-(3-hydroxy-3-methylbutyl)-1H-pyrazol-3-yl)-4-((tetrahydro-2H-pyran-4-yl)amino)pyridin-2-yl)pyrazolo[1,5-a]pyrimidine-6-carbonitrile], on IRAK4, the IC50 came out at 2 nM. This molecule also showed an EC50 with Human whole blood of 510 nM.

`CCCn1cc(-c2cnc(-c3cnc4cc(Cl)cnn34)cc2NC(C)C)nn1` [Example 20, 2-(7-chloroimidazo[1,2-b]pyridazin-3-yl)-N-isopropyl-5-(1-propyl-1H-1,2,3-triazol-4-yl)pyridin-4-amine]: the IC50 on IRAK4 stood at 12 nM.

With `CC(C)Nc1cc(-c2cnc3cc(C#N)cnn23)ncc1-c1cnn(C2CCOCC2)c1` [Example 3, 3-(4-(isopropylamino)-5-(1-(tetrahydro-2H-pyran-4-yl)-1H-pyrazol-4-yl)pyridin-2-yl)imidazo[1,2-b]pyridazine-7-carbonitrile], at IRAK4, the IC50 was found to be 14 nM. In the test on Human whole blood, the EC50 was 1030 nM.

Turning to `CC(C)Nc1cc(-c2cnn3cc(C#N)cnc23)ncc1-n1cc(C(C)(C)O)cn1` [Example 1, 3-(5-(4-(2-hydroxypropan-2-yl)-1H-pyrazol-1-yl)-4-(isopropylamino)pyridin-2-yl) pyrazolo[1,5-a]pyrimidine-6-carbonitrile], the IC50 at IRAK4 was 578 nM.

What is called IC50 is the midpoint of a concentration-inhibition curve. Usually EC50 stands for the concentration needed to bring the measured effect to its halfway point. Read a low EC50 as a more potent agent.
